Our source for the melting point values is US20160304461A1, “QUINOLONE COMPOUND AND PHARMACEUTICAL COMPOSITION” (OTSUKA PHARMACEUTICAL CO., LTD., priority 2007, published 2016).

`CCCOc1ccc(F)c2c(=O)c(-c3ccc(C(=O)OC)cc3)c[nH]c12` [Example 55, Methyl 4-(5-fluoro-4-oxo-8-propoxy-1,4-dihydroquinolin-3-yl)benzoate] displayed a melting point of 201 to 202 °C.

Take `CCCOc1ccc(F)c2c(=O)c(-c3ccc(O)cc3)c[nH]c12` [Example 95, 5-Fluoro-3-(4-hydroxyphenyl)-8-propoxy-1H-quinolin-4-one]: the melting point lay within 271 to 272 °C.

Consider `CCCOc1ccc(F)c2c(=O)c(-c3ccc(OC)cc3OC)c[nH]c12` [Example 8, 3-(2,4-Dimethoxyphenyl)-5-fluoro-8-propoxy-1H-quinolin-4-one], for which the melting point lay in the range of 116 to 118 °C.

For `CCCOc1ccc(F)c2c(=O)c(-c3ccc(Oc4ccccc4)cc3)c[nH]c12` [Example 52, 5-Fluoro-3-(4-phenoxyphenyl)-8-propoxy-1H-quinolin-4-one], the melting point lay in the range of 228 to 230 °C.

Turning to `COc1ccc(-c2c[nH]c3c(OC4CCCC4)ccc(Br)c3c2=O)cc1` [Example 104, 5-Bromo-8-cyclopentyloxy-3-(4-methoxyphenyl)-1H-quinolin-4-one], the melting point was 213 to 215 °C.

`COc1ccc(-c2c[nH]c3c(OCCCNS(C)(=O)=O)ccc(F)c3c2=O)cc1` [Example 27, N-{3-[5-Fluoro-3-(4-methoxyphenyl)-4-oxo-1,4-dihydroquinolin-8-yloxy]propyl}methanesulfonamide] yielded a melting point of 120 to 121 °C.

Take `O=c1c(-c2ccc(O)cc2)c[nH]c2c(O)ccc(F)c12` [Example 96, 5-Fluoro-8-hydroxy-3-(4-hydroxyphenyl)-1H-quinolin-4-one]: the melting point is 303 to 305 °C (dec.).

For `COc1ccc(-c2c[nH]c3c(Br)ccc(F)c3c2=O)cc1` [Example 22, 8-Bromo-5-fluoro-3-(4-methoxyphenyl)-1H-quinolin-4-one], the melting point lay within 134 to 135 °C.

Molecule `CCCOc1ccc(F)c2c(=O)c(-c3ccc(OC(C)C)cc3OC)c[nH]c12` [Example 20, 5-Fluoro-3-(4-isopropoxy-2-methoxyphenyl)-8-propoxy-1H-quinolin-4-one] showed a melting point of 113 to 115 °C.

`CCCOc1ccc(F)c2c(=O)c(-c3ccc(OC(F)(F)F)cc3)c[nH]c12` [Example 5, 5-Fluoro-8-propoxy-3-(4-trifluoromethoxyphenyl)-1H-quinolin-4-one]: the melting point lay within 212 to 214 °C.

The molecule `CCCOc1ccc(Cl)c2c(=O)c(-c3ccc(OC)cc3)c[nH]c12` [Example 103, 5-Chloro-3-(4-methoxyphenyl)-8-propoxy-1H-quinolin-4-one] returned a melting point of 194 to 196 °C.

Take `CCCOc1ccc(F)c2c(=O)c(-c3ccco3)c(C)[nH]c12` [Example 76, 5-Fluoro-3-furan-2-yl-2-methyl-8-propoxy-1H-quinolin-4-one]: the melting point is 203 to 204 °C.

As to `CCCOc1ccc(F)c2c(=O)c(-c3ccncc3)c(C)[nH]c12` [Example 69, 5-Fluoro-2-methyl-8-propoxy-3-pyridin-4-yl-1H-quinolin-4-one], the melting point lay in the range of 265 to 266 °C.

On to `CCCOc1ccc(F)c2c(=O)c(-c3ccco3)c(C(C)C)[nH]c12` [Example 84, 5-Fluoro-3-furan-2-yl-2-isopropyl-8-propoxy-1H-quinolin-4-one], for which the melting point was in the range of 113 to 114 °C.

Turning to `CCCOc1ccc(F)c2c(=O)c(-c3ccc(OC)cc3)c(CC)[nH]c12` [Example 48, 2-Ethyl-5-fluoro-3-(4-methoxyphenyl)-8-propoxy-1H-quinolin-4-one], the melting point was in the range of 169 to 171 °C.

In turn, `CCCOc1ccc(F)c2c(=O)c(-c3ccc(C(=O)N(C)C)cc3)c[nH]c12` [Example 57, 4-(5-Fluoro-4-oxo-8-propoxy-1,4-dihydroquinolin-3-yl)-N,N-dimethylbenzamide] gave a melting point of 235 to 237 °C.

`COc1ccc(-c2c[nH]c3c(OCC(C)O)ccc(F)c3c2=O)cc1` (stereo not drawn) [Example 102, 5-Fluoro-8-(2-hydroxypropoxy)-3-(4-methoxyphenyl)-1H-quinolin-4-one]: the melting point was in the range of 216 to 218 °C.

`CCCOc1ccc(F)c2c(=O)c(-c3cccs3)c(C(F)(F)F)[nH]c12` [Example 85, 5-Fluoro-8-propoxy-3-thiophen-2-yl-2-trifluoromethyl-1H-quinolin-4-one] showed a melting point of 149 to 150 °C.

On to `CCCOc1ccc(F)c2c(=O)c(-c3ccc(OC)cc3OC(C)C)c[nH]c12` [Example 15, 5-Fluoro-3-(2-isopropoxy-4-methoxyphenyl)-8-propoxy-1H-quinolin-4-one], for which the melting point was in the range of 204 to 206 °C.

Molecule `CCOc1ccc(F)c2c(=O)c(-c3ccc(OC)cc3)c[nH]c12` [Example 11, 8-Ethoxy-5-fluoro-3-(4-methoxyphenyl)-1H-quinolin-4-one] yielded a melting point of 155 to 156 °C.

In turn, `COc1ccc(-c2c[nH]c3c(OC(C)(C)C)ccc(F)c3c2=O)cc1` [Example 42, 8-tert-Butoxy-5-fluoro-3-(4-methoxyphenyl)-1H-quinolin-4-one] yielded a melting point of 206 to 208 °C.

Regarding `CCCOc1ccc(F)c2c(=O)c(-c3ccc(OC(F)(F)F)cc3)c(C(F)(F)F)[nH]c12` [Example 82, 5-Fluoro-8-propoxy-3-(4-trifluoromethoxyphenyl)-2-trifluoromethyl-1H-quinolin-4-one], the melting point lay within 143 to 144 °C.

The molecule `CCCOc1ccc(F)c2c(=O)c(-c3ccsc3C=O)c[nH]c12` [Example 60, 3-(5-Fluoro-4-oxo-8-propoxy-1,4-dihydroquinolin-3-yl)thiophene-2-carbaldehyde] had a melting point of 190 to 191 °C.

Regarding `CCCOc1ccc(F)c2c(=O)c(-c3ccc(O)cc3OC)c[nH]c12` [Example 97, 5-Fluoro-3-(4-hydroxy-2-methoxyphenyl)-8-propoxy-1H-quinolin-4-one], the melting point was in the range of 251 to 253 °C.

In the case of `CCCOc1ccc(F)c2c(=O)c(-c3ccc(C(=O)N4CCOCC4)cc3)c[nH]c12` [Example 90, 5-Fluoro-3-[4-(morpholine-4-carbonyl)phenyl]-8-propoxy-1H-quinolin-4-one], the melting point lay in the range of 234 to 236 °C.

For the molecule `CCCOc1ccc(F)c2c(=O)c(-c3ccc(OC)cc3F)c[nH]c12` [Example 17, 5-Fluoro-3-(2-fluoro-4-methoxyphenyl)-8-propoxy-1H-quinolin-4-one], the melting point lay within 230 to 232 °C.

In turn, `CCCOc1ccc(F)c2c(=O)c(-c3ccc(F)cc3)c(C(F)(F)F)[nH]c12` [Example 81, 5-Fluoro-3-(4-fluorophenyl)-8-propoxy-2-trifluoromethyl-1H-quinolin-4-one] returned a melting point of 154 to 155 °C.

`CCCOc1ccc(F)c2c(=O)c(-c3ccc(OC)cc3)c(C(C)C)[nH]c12` [Example 83, 5-Fluoro-2-isopropyl-3-(4-methoxyphenyl)-8-propoxy-1H-quinolin-4-one]: the melting point is 195 to 197 °C.

Molecule `CCCOc1ccc(F)c2c(=O)c(-c3ccc(N(C)C)cc3)c(C)[nH]c12` [Example 73, 3-(4-Dimethylaminophenyl)-5-fluoro-2-methyl-8-propoxy-1H-quinolin-4-one] returned a melting point of 255 to 257 °C.

For the molecule `COc1ccc(-c2c[nH]c3c(C(=O)N4CCCC4)ccc(F)c3c2=O)cc1` [Example 23, 5-Fluoro-3-(4-methoxyphenyl)-8-(pyrrolidin-1-carbonyl)-1H-quinolin-4-one], the melting point was 236 to 237 °C.

`CCCOc1ccc(F)c2c(=O)c(-c3ccncc3)c[nH]c12` [Example 51, 5-Fluoro-8-propoxy-3-pyridin-4-yl-1H-quinolin-4-one]: the melting point was 259 to 261 °C.

`CCCOc1ccc(F)c2c(=O)c(-c3ccc(N(C)C)cc3)c(C(F)(F)F)[nH]c12` [Example 79, 3-(4-Dimethylaminophenyl)-5-fluoro-8-propoxy-2-trifluoromethyl-1H-quinolin-4-one] displayed a melting point of 176 to 177 °C.

In turn, `CCCOc1ccc(F)c2c(=O)c(-c3cccnc3)c(C)[nH]c12` [Example 68, 5-Fluoro-2-methyl-8-propoxy-3-pyridin-3-yl-1H-quinolin-4-one] gave a melting point of 190 to 192 °C.

With `CCCOc1ccc(F)c2c(=O)c(-c3ccc(C(=O)N4CCCC4)cc3)c[nH]c12` [Example 56, 5-Fluoro-8-propoxy-3-[4-(pyrrolidine-1-carbonyl)phenyl]-1H-quinolin-4-one], the melting point was 236 to 237 °C.

The molecule `CCOc1ccc(F)c2c(=O)c(-c3ccc(Cl)cc3Cl)c[nH]c12` [Example 13, 3-(2,4-Dichlorophenyl)-8-ethoxy-5-fluoro-1H-quinolin-4-one] registered a melting point of 236 to 237 °C.

For the molecule `CCCOc1ccc(F)c2c(=O)c(-c3cccs3)c(C)[nH]c12` [Example 72, 5-Fluoro-2-methyl-8-propoxy-3-thiophen-2-yl-1H-quinolin-4-one], the melting point lay within 233 to 234 °C.

`CCCOc1ccc(F)c2c(=O)c(-c3ccco3)c[nH]c12` [Example 58, 5-Fluoro-3-furan-2-yl-8-propoxy-1H-quinolin-4-one] yielded a melting point of 210 to 212 °C.

Turning to `CCCOc1ccc(F)c2c(=O)c(-c3ccc(OCC)cc3OC)c[nH]c12` [Example 19, 3-(4-Ethoxy-2-methoxyphenyl)-5-fluoro-8-propoxy-1H-quinolin-4-one], the melting point lay within 118 to 120 °C.

For `CCCOc1ccc(F)c2c(=O)c(-c3cc(OC)ccc3OC)c[nH]c12` [Example 65, 3-(2,5-Dimethoxyphenyl)-5-fluoro-8-propoxy-1H-quinolin-4-one], the melting point fell in the range of 156 to 157 °C.

The molecule `CCCOc1ccc(F)c2c(=O)c(-c3ccc(OC)cc3C)c[nH]c12` [Example 16, 5-Fluoro-3-(4-methoxy-2-methylphenyl)-8-propoxy-1H-quinolin-4-one] gave a melting point of 197 to 199 °C.

`CCCOc1ccc(F)c2c(=O)c(-c3ccc(CC)cc3)c(C(F)(F)F)[nH]c12` [Example 80, 3-(4-Ethylphenyl)-5-fluoro-8-propoxy-2-trifluoromethyl-1H-quinolin-4-one] registered a melting point of 187 to 188 °C.

Take `COc1ccc(-c2c[nH]c3c(OCC4CCC4)ccc(F)c3c2=O)cc1` [Example 41, 8-Cyclobutylmethoxy-5-fluoro-3-(4-methoxyphenyl)-1H-quinolin-4-one]: the melting point lay in the range of 193 to 194 °C.

One may read the melting point as the temperature of the solid-liquid transition.
